Data: patent publication US20230016424A1, “HYBRID AMIDE DERIVATIVES OF AMPHOTERICIN B” (The Board of Trustees of the University of Illinois, priority 2019, published 2023)
In brackets after ≈: the same amount, converted by molar mass.

How the values were obtained:
[1] = system: C. albicans SN250, C. albicans, C. krusei, C. glabrata, C. tropicalis, A. fumigatus 91, 1163, 1100; experiment: Average MIC over the tested strains; type: cell-based; conditions: for MIC: average over the 8 listed strains; for Average MIC: Tables 8 and 9, average over the 8 listed strains
[2] = system: A. fumigatus 91; experiment: MIC; type: cell-based
[3] = system: A. fumigatus 1100; experiment: MIC; type: cell-based
[4] = system: A. fumigatus 1163; experiment: MIC; type: cell-based
[5] = system: C. krusei; experiment: MIC; type: cell-based
[6] = system: C. albicans; experiment: MIC; type: cell-based
[7] = system: C. tropicalis; experiment: MIC; type: cell-based
[8] = system: C. glabrata; experiment: MIC; type: cell-based
[9] = system: C. albicans SN250; experiment: MIC; type: cell-based, Candida albicans
[10] = Plasma Stability; type: in vitro ADME
Experimental: Plasma Stability: Procedure: […] Plasma was warmed to 37° C. prior to the experiment and centrifuged for 5 mins at 4000 rpm. […] Each time point was monitored in triplicate (0, 10, 30, 60 and 120 min). 4 uL/well aliquot of the working solution was mixed to the blank plasma and incubated at 37° C. AT each time point samples were quenched with ACN stop solution containing 200 ng/ml Tolbutamide & 200 ng/ml Labetalol at 1:3 ratio and mix well on shaker for 10 min then centrifuge at 4000 rpm for 15 min. A 100 ul aliquot of supernatant was mixed with 100 μL of ultra-pure and submitted for LC-MS/MS analysis.

[11] = Liver Microsome stability (In Vitro Metabolism); type: in vitro ADME; conditions: for Remaining (T = NCF60 min): no cofactor 60 min
Experimental: Working Compound solution: 10 uM in 50 mM potassium phosphate buffer with 9% MeOH and 1% DMSO
Microsome solution: working concentration 0.625 mg/ml
Stopping solution: Cold ACN with 200 ng/ml Tolbutamide and 200 ng/ml Labetalol (4° C.)
Procedure: In the well plates (T5, T10, T20, T30, T60, NCF60 (no cofactor 60)) 10 uL of the compound/control working solution was added (except T0 and matric blank) followed by microsome solution (80 uL) and the mixture was incubated at 37 C for about 10 mins. A solution of potassium phosphate (10 ul of 50 mM) was added to NCF60 well, incubated at 37 C and time counting started. After prewarming 10 ul of NADPH regenerating solution was added to each plate to start the reaction. At different time point 300 uL/well of stopping solution to terminate the reaction. The sampling plates were shaken for 10 mins and the centrifuged for 20 mins at 4000 rpm. The supernatant was half diluted with ultra pure water and the analyzed using LCMS.

| Structure (SMILES) | MIC A. fumigatus 1163 [4] [µM] | MIC C. krusei [5] [µM] | MIC C. albicans [6] [µM] | MIC C. tropicalis [7] [µM] | MIC C. albicans SN250 [9] [µM] | % Remaining at 120 min ([10]; Human Plasma) [%] | Half Life ([10]; Human Plasma) [h] | % Remaining at 120 min ([10]; Rat Plasma) [%] | Half Life ([10]; Rat Plasma) [h] | CL ([11]; Dog liver microsomes) [µL/min/mg] | CLint ([11]; Dog liver microsomes) [mL/min/kg] | Remaining (T = 60 min) ([11]; Dog liver microsomes) [%] | T1/2 ([11]; Dog liver microsomes) [h] | Remaining (T = NCF60 min) ([11]; Dog liver microsomes) [%] | CL ([11]; Human liver microsomes) [µL/min/mg] | CLint ([11]; Human liver microsomes) [mL/min/kg] | Remaining (T = 60 min) ([11]; Human liver microsomes) [%] | T1/2 ([11]; Human liver microsomes) [h] | Remaining (T = NCF60 min) ([11]; Human liver microsomes) [%] | CL ([11]; Monkey liver microsomes) [µL/min/mg] | further results |
| --- | --- | --- | --- | --- | --- | --- | --- | --- | --- | --- | --- | --- | --- | --- | --- | --- | --- | --- | --- | --- | --- |
| CC1C=CC=CC=CC=CC=CC=CC=CC(OC2OC(C)C(O)C(N)C2O)CC2OC(O)(CC(O)CC(O)C(O)CCC(O)CC(O)CC(=O)OC(C)C(C)C1O)CC(O)C2C(=O)NCC(O)CO (mixture of isomers) [AJ] | 0.3 | 0.3 | 0.20 | 0.2 | 0.15 |  |  |  |  |  |  |  |  |  |  |  |  |  |  |  | MIC [1]: 0.329 µM; MIC A. fumigatus 91 [2]: 1 µM; MIC A. fumigatus 1100 [3]: 0.4 µM; MIC C. glabrata [8]: 0.08 µM |
| CC1C=CC=CC=CC=CC=CC=CC=CC(OC2OC(C)C(O)C(N)C2O)CC2OC(O)(CC(O)CC(O)C(O)CCC(O)CC(O)CC(=O)OC(C)C(C)C1O)CC(O)C2C(=O)NCCS (stereo not shown) [AB] | 1 (≈ 0.983 µg/mL) | 1 (≈ 0.983 µg/mL) | 0.45 (≈ 0.442 µg/mL) | 0.45 (≈ 0.442 µg/mL) | 0.4 (≈ 0.393 µg/mL) |  |  |  |  |  |  |  |  |  |  |  |  |  |  |  | MIC [1]: 0.706 µM; MIC A. fumigatus 91 [2]: 1 µM (≈ 0.983 µg/mL); MIC A. fumigatus 1100 [3]: 1 µM (≈ 0.983 µg/mL); MIC C. glabrata [8]: 0.35 µM (≈ 0.344 µg/mL) |
| COC(=O)C(Cc1c[nH]cn1)NC(=O)C1C(O)CC2(O)CC(O)CC(O)C(O)CCC(O)CC(O)CC(=O)OC(C)C(C)C(O)C(C)C=CC=CC=CC=CC=CC=CC=CC(OC3OC(C)C(O)C(N)C3O)CC1O2 (stereo not shown) [AL] |  |  |  |  |  | 107 | >4.82 | 111 | >4.82 | <9.6 | <14 | 101 | >2.42 | 87.1 | <9.6 | <8.6 | 113 | >2.42 | 96.8 | <9.6 | CLint ([11]; Monkey liver microsomes): <14 mL/min/kg; Remaining (T = 60 min) ([11]; Monkey liver microsomes): 107%; T1/2 ([11]; Monkey liver microsomes): >2.42 h; Remaining (T = NCF60 min) ([11]; Monkey liver microsomes): 106%; CL ([11]; Mouse liver microsomes): <9.6 µL/min/mg; CLint ([11]; Mouse liver microsomes): <38 mL/min/kg; Remaining (T = 60 min) ([11]; Mouse liver microsomes): 127%; T1/2 ([11]; Mouse liver microsomes): >2.42 h; Remaining (T = NCF60 min) ([11]; Mouse liver microsomes): 139%; CL ([11]; Rat liver microsomes): <9.6 µL/min/mg; CLint ([11]; Rat liver microsomes): <17 mL/min/kg; Remaining (T = 60 min) ([11]; Rat liver microsomes): 132%; T1/2 ([11]; Rat liver microsomes): >2.42 h; Remaining (T = NCF60 min) ([11]; Rat liver microsomes): 75.4% |
| CC1C=CC=CC=CC=CC=CC=CC=CC(OC2OC(C)C(O)C(N)C2O)CC2OC(O)(CC(O)CC(O)C(O)CCC(O)CC(O)CC(=O)OC(C)C(C)C1O)CC(O)C2C(=O)NCCN (stereo not shown) [AM] |  |  |  |  |  | 102 | >4.82 | 118 | >4.82 | <9.6 | <14 | 107 | >2.42 | 109 | <9.6 | <8.6 | 101 | >2.42 | 115 | <9.6 | CLint ([11]; Monkey liver microsomes): <13 mL/min/kg; Remaining (T = 60 min) ([11]; Monkey liver microsomes): 113%; T1/2 ([11]; Monkey liver microsomes): >2.42 h; Remaining (T = NCF60 min) ([11]; Monkey liver microsomes): 121%; CL ([11]; Mouse liver microsomes): <9.6 µL/min/mg; CLint ([11]; Mouse liver microsomes): <38 mL/min/kg; Remaining (T = 60 min) ([11]; Mouse liver microsomes): 109%; T1/2 ([11]; Mouse liver microsomes): >2.42 h; Remaining (T = NCF60 min) ([11]; Mouse liver microsomes): 176%; CL ([11]; Rat liver microsomes): <9.6 µL/min/mg; CLint ([11]; Rat liver microsomes): <17 mL/min/kg; Remaining (T = 60 min) ([11]; Rat liver microsomes): 113%; T1/2 ([11]; Rat liver microsomes): >2.42 h; Remaining (T = NCF60 min) ([11]; Rat liver microsomes): 83.1% |
| CNC(=O)C1C(O)CC2(O)CC(O)CC(O)C(O)CCC(O)CC(O)CC(=O)OC(C)C(C)C(O)C(C)C=CC=CC=CC=CC=CC=CC=CC(OC3OC(C)C(O)C(N)C3O)CC1O2 (stereo not shown) [AN] |  |  |  |  |  | 106 | >4.82 | 118 | >4.82 | <9.6 | <14 | 92.4 | >2.42 | 113 | <9.6 | <8.6 | 104 | >2.42 | 127 | <9.6 | CLint ([11]; Monkey liver microsomes): <13 mL/min/kg; Remaining (T = 60 min) ([11]; Monkey liver microsomes): 139%; T1/2 ([11]; Monkey liver microsomes): >2.42 h; Remaining (T = NCF60 min) ([11]; Monkey liver microsomes): 135%; CL ([11]; Mouse liver microsomes): <9.6 µL/min/mg; CLint ([11]; Mouse liver microsomes): <38 mL/min/kg; Remaining (T = 60 min) ([11]; Mouse liver microsomes): 102%; T1/2 ([11]; Mouse liver microsomes): >2.42 h; Remaining (T = NCF60 min) ([11]; Mouse liver microsomes): 131%; CL ([11]; Rat liver microsomes): <9.6 µL/min/mg; CLint ([11]; Rat liver microsomes): <17 mL/min/kg; Remaining (T = 60 min) ([11]; Rat liver microsomes): 106%; T1/2 ([11]; Rat liver microsomes): >2.42 h; Remaining (T = NCF60 min) ([11]; Rat liver microsomes): 93% |
| CC1C=CC=CC=CC=CC=CC=CC=CC(OC2OC(C)C(O)C(N)C2O)CC2OC(O)(CC(O)CC(O)C(O)CCC(O)CC(O)CC(=O)OC(C)C(C)C1O)CC(O)C2C(=O)NC1CC1 (stereo not shown) [AR3] | 500 (≈ 482 µg/mL) | 250 (≈ 241 µg/mL) | 250 (≈ 241 µg/mL) | 250 (≈ 241 µg/mL) |  |  |  |  |  |  |  |  |  |  |  |  |  |  |  |  | Average MIC [1]: 438 µM |
| CC1C=CC=CC=CC=CC=CC=CC=CC(OC2OC(C)C(O)C(N)C2O)CC2OC(O)(CC(O)CC(O)C(O)CCC(O)CC(O)CC(=O)OC(C)C(C)C1O)CC(O)C2C(=O)NC1CCC1 (stereo not shown) [AR4] | 1000 (≈ 977 µg/mL) | 550 (≈ 537 µg/mL) |  | 500 (≈ 489 µg/mL) | 500 (≈ 489 µg/mL) |  |  |  |  |  |  |  |  |  |  |  |  |  |  |  | Average MIC [1]: 750 µM |
